# Assay results taken from patent US12702149B2, “Resistant starch from natural sources and their preparation” (Arjuna Natural Private Limited, priority 2019, dated 2026).
# Test system: carrageenan induced paw oedema
# Experiment: Anti-inflammatory study, carrageenan induced paw oedema model
# Assay type: in vivo, Wistar rats
# Settings: oral, fibres 50 mg/Kg, Diclofenac 10 mg/Kg
# Procedure: Anti-inflammatory study of turmeric dietary fibre was conducted in Wistar rats. Rats were divided into 5 groups and orally administered with study samples. • Group 1: consisted of control animals and were fed with vehicle (1% tween 80) • Group 2: animals which were given Diclofenac standard (10 mg Diclofenac/Kg body weight) • Group 3: Animals were given turmeric dietary fibre having 80% total dietary fibre (50 mg/Kg) • Group 4: Animals were given soluble dietary fibre from Guar beans (50 mg/Kg) • Group 5: Animals were given modified starch from tapioca (50 mg/Kg) Then after 30 mins, the treated rats were challenged with carrageenan (0.1 ml, 1% carrageenan suspension in 0.9% NaCl solution) by injecting to the animals in sub plantar region of the hind paw. Carrageenan is a chemical known to induce inflammation in rats. The paw volume was determined for all the animals at different time intervals (base line, 3 hr, 6 Hr) after carrageenan injection using digital plethysmometer and the percentage inhibition of inflammation was calculated using following formula: Percentage inhibition=(1−D/C)×100 • D-Represents the difference in paw volume from baseline in test/standard group. • C-Represents the difference in paw volume from baseline in the control group. A higher value of percentage inhibition indicated less paw volume in the animals as compared to control animals and more anti-inflammatory activity.
compound,measurement,setting,value
O=C(O)Cc1ccccc1Nc1c(Cl)cccc1Cl [Diclofenac],Average percentage inhibition of inflammation,average of 3 Hr and 6 Hr,39%
same,Percentage inhibition of inflammation 3 Hr,paw volume 3 hr after carrageenan,46%
same,Percentage inhibition of inflammation 6 Hr,paw volume 6 hr after carrageenan,32%
